Target: T1, hNLRP3 (Homo sapiens, UniProt Q96P20)
T1 construct: THP-1 cells were purchased from the American Type Culture Collection; host or cells: THP-1 cells, PMA-differentiated
Assay: IL-1β production in PMA-differentiated THP-1 cells stimulated with gramicidin
Assay type: cell-based
Details: gramicidin 5 μM, IL-1β in supernatant, Table 2
Experimental: Bioassay: IL-1β Production in PMA-Differentiated THP-1 Cells Stimulated with Gramicidin. Procedure 1:
Cell culture—THP-1 cells were purchased from the American Type Culture Collection and sub-cultured according to instructions from the supplier. Prior to experiments, cells were cultured in RPMI 1640 containing 10% heat inactivated FBS, penicillin (100 units/ml) and streptomycin (100 μg/ml), and maintained in log phase prior to experimental setup. Prior to the experiment THP-1 were treated with PMA (Phorbol 12-myristate 13-acetate) (10 μg/ml) for 24 hours. The day of the experiment the media was removed and attaching cells were treated with trypsin for 2 minutes, cells were then collected, washed with PBS (phosphate buffer saline), spin down, resuspended in 2% heat inactivated FBS with RPMI at a concentration of 1×10^6 cells/ml, and 100 ul was plated in a 96 well plate. Cells were incubated with compounds for 1 hours and then stimulated with Gramicidin (5 μM) (Enzo) for 2 hours. Cell free supernatant was collected and the production of IL-1β was evaluated by ELISA. Compounds were dissolved in dimethyl sulfoxide (DMSO) and added to the culture medium to achieve desired concentration (e.g. 100, 30, 10, 3, 1, 0.3 or 0.1 μM). A vehicle only control was run concurrently with each experiment. Final DMSO concentration was 1%.
THP-1 cells were purchased from the American Type Culture Collection and sub-cultured according to instructions from the supplier. Prior to experiments, cells were cultured in complete RPMI 1640 (containing 10% heat inactivated FBS, penicillin (100 units/ml) and streptomycin (100 μg/ml)), and maintained in log phase prior to experimental setup. Prior to the experiment THP-1 were treated with PMA (Phorbol 12-myristate 13-acetate) (20 ng/ml) for 16-18 hours. On the day of the experiment the media was removed and adherent cells were detached with trypsin for 5 minutes. Cells were then harvested, washed with complete RPMI 1640, spun down, resuspended in RPMI 1640 (containing 2% heat inactivated FBS, penicillin (100 units/ml) and streptomycin (100 μg/ml). The cells were plated in a 384-well plate at a density of 50,000 cells/well (final assay volume 50 μl). Compounds were dissolved in dimethyl sulfoxide (DMSO) and added to the culture medium to achieve desired concentration (e.g. 100, 33, 11, 3.7, 1.2, 0.41, 0.14, 0.046, 0.015, 0.0051, 0.0017 μM). Cells were incubated with compounds for 1 hour and then stimulated with gramicidin (5 μM) (Enzo) for 2 hours. Cell free supernatant was collected and the production of IL-1β was evaluated by HTRF (cisbio). A vehicle only control was run concurrently with each experiment. Final DMSO concentration was 0.38%.

T1 sequence (Q96P20 whole entry): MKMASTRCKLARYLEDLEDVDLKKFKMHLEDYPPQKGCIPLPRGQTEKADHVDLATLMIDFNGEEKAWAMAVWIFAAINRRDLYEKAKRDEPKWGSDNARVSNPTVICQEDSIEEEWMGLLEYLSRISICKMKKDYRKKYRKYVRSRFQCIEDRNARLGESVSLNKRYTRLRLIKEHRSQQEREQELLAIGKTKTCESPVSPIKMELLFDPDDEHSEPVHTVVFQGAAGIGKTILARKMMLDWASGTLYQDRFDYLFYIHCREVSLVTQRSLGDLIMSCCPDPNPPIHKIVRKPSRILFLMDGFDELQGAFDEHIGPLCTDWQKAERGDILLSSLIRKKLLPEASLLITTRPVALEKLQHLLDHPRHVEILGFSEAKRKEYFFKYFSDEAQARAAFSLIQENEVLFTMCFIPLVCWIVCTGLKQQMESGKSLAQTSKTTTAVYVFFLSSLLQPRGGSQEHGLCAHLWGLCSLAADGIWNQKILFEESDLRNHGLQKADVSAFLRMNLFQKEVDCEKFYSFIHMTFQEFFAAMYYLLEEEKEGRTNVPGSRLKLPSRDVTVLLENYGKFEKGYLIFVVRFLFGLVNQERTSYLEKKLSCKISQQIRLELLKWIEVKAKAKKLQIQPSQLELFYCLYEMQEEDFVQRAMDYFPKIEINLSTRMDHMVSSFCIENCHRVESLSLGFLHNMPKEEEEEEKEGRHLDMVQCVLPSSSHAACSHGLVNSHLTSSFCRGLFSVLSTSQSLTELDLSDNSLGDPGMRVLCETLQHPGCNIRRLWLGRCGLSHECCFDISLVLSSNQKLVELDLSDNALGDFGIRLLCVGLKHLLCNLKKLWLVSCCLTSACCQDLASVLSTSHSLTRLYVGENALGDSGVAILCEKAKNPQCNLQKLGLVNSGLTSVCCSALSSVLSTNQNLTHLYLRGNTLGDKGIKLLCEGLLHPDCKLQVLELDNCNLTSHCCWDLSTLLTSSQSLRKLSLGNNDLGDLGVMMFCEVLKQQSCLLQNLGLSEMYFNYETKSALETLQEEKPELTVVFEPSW

IC50 [µM] | Structure (SMILES)
5 to 15 | CC(C)c1ccc(F)c(C(C)C)c1NC(=O)NS(=O)(=O)c1ncc(C2(O)CCC2)s1 [Compound 169, N-(3-fluoro-2,6-diisopropylphenylcarbamoyl)-5-(1-hydroxycyclobutyl) thiazole-2-sulfonamide]
5 to 15 | CCc1cc(Cl)cc(CC)c1NC(=O)NS(=O)(=O)c1ncc(C(C)(C)O)s1 [Compound 170, N-(4-chloro-2,6-diethylphenylcarbamoyl)-5-(2-hydroxypropan-2-yl) thiazole-2-sulfonamide]
1 to 5 | CCc1cc(Cl)cc(CC)c1NC(=O)NS(=O)(=O)c1cc(C(C)(C)O)cs1 [Compound 171, N-(4-chloro-2,6-diethylphenylcarbamoyl)-4-(2-hydroxypropan-2-yl) thiophene-2-sulfonamide]
1 to 5 | CCc1cccc(CC)c1NC(=O)NS(=O)(=O)c1ncc(C(C)(C)O)s1 [Compound 172, N-(2,6-diethylphenylcarbamoyl)-5-(2-hydroxypropan-2-yl)thiazole-2-sulfonamide]
15 to 35 | CCc1cccc(CC)c1NC(=O)NS(=O)(=O)c1cc(C(C)(C)O)cs1 [Compound 173, N-(2,6-diethylphenylcarbamoyl)-4-(2-hydroxypropan-2-yl)thiophene-2-sulfonamide]
15 to 35 | CC(C)c1ccc2c(c1NC(=O)NS(=O)(=O)c1cc(C(C)(C)O)cs1)CCC2 [Compound 175, 4-(2-hydroxypropan-2-yl)-N-(5-isopropyl-2,3-dihydro-1H-inden-4-ylcarbamoyl) thiophene-2-sulfonamide]
< 1 | CC(C)(O)c1ccc(S(=O)(=O)NC(=O)Nc2c3c(c(F)c4c2CCC4)CCC3)s1 [Compound 176, N-(8-fluoro-1,2,3,5,6,7-hexahydros-indacen-4-ylcarbamoyl)-5-(2-hydroxypropan-2-yl) thiophene-2-sulfonamide]
1 to 5 | N#Cc1c2c(c(NC(=O)NS(=O)(=O)c3ccc(C4(O)CC4)s3)c3c1CCC3)CCC2 [Compound 178, N-(8-cyano-1,2,3,5,6,7-hexahydros-indacen-4-ylcarbamoyl)-5-(1-hydroxycyclopropyl) thiophene-2-sulfonamide]
1 to 5 | CC(C)c1ccc(Cl)c(C(C)C)c1NC(=O)NS(=O)(=O)c1ncc(C(C)(C)O)s1 [Compound 179, N-(3-chloro-2,6-diisopropylphenylcarbamoyl)-5-(2-hydroxypropan-2-yl)thiazole-2-sulfonamide]
< 1 | CC(C)c1ccc(Cl)c(C(C)C)c1NC(=O)NS(=O)(=O)c1cc(C(C)(C)O)cs1 [Compound 180, N-(3-chloro-2,6-diisopropylphenylcarbamoyl)-4-(2-hydroxypropan-2-yl)thiophene-2-sulfonamide]
< 1 | CC(C)c1ccc(Cl)c(C(C)C)c1NC(=O)NS(=O)(=O)c1cc(C2(O)CC2)co1 [Compound 181, N-(3-chloro-2,6-diisopropylphenylcarbamoyl)-4-(1-hydroxycyclopropyl) furan-2-sulfonamide]
1 to 5 | COc1ccc2c(c1NC(=O)NS(=O)(=O)c1ncc(C(C)(C)O)s1)CCC2 [Compound 182, 5-(2-hydroxypropan-2-yl)-N-(5-methoxy-2,3-dihydro-1H-inden-4-ylcarbamoyl)thiazole-2-sulfonamide]
< 1 | O=C(Nc1c2c(cc3c1CCC3)CCC2)NS(=O)(=O)c1ncc(C2(O)CCCC2)s1 [Compound 183]
< 1 | CC(C)c1cc(C#N)cc(C(C)C)c1NC(=O)NS(=O)(=O)c1ccc(C(C)(C)O)s1 [Compound 184, N-(4-cyano-2,6-diisopropylphenylcarbamoyl)-5-(2-hydroxypropan-2-yl) thiophene-2-sulfonamide]
1 to 5 | CC(C)c1ccc(F)c(C(C)C)c1NC(=O)NS(=O)(=O)c1ccc(C(C)(C)O)s1 [Compound 185, N-(3-fluoro-2,6-diisopropylphenylcarbamoyl)-5-(2-hydroxypropan-2-yl)thiophene-2-sulfonamide]
1 to 5 | CC(C)c1cccc(C(C)C)c1NC(=O)NS(=O)(=O)c1ccc(C(C)(C)O)s1 [Compound 188, N-(2,6-diisopropylphenylcarbamoyl)-5-(2-hydroxypropan-2-yl) thiophene-2-sulfonamide]

IC50 [µM] | Structure (SMILES)
< 1 | CC(C)(O)c1ccc(S(=O)(=O)NC(=O)Nc2c3c(c(Cl)c4c2CCC4)CCC3)s1 [Compound 189, N-(8-chloro-1,2,3,5,6,7-hexahydros-indacen-4-ylcarbamoyl)-5-(2-hydroxypropan-2-yl) thiophene-2-sulfonamide]
1 to 5 | CC(C)(O)c1cnc(S(=O)(=O)NC(=O)Nc2cccc3c2CCC3)s1 [Compound 190, N-(2,3-dihydro-1H-inden-4-ylcarbamoyl)-5-(2-hydroxypropan-2-yl)thiazole-2-sulfonamide]
1 to 5 | CC(C)(O)c1csc(S(=O)(=O)NC(=O)Nc2cccc3c2CCC3)c1 [Compound 191, N-(2,3-dihydro-1H-inden-4-ylcarbamoyl)-4-(2-hydroxypropan-2-yl) thiophene-2-sulfonamide]
1 to 5 | O=C(Nc1cccc2c1CCC2)NS(=O)(=O)c1cc(C2(O)CC2)co1 [Compound 192, N-(2,3-dihydro-1H-inden-4-ylcarbamoyl)-4-(1-hydroxycyclopropyl) furan-2-sulfonamide]
1 to 5 | O=C(Nc1c2c(cc3c1CCC3)CCC2)NS(=O)(=O)c1ncc(C2(O)CCCCC2)s1 [Compound 193, N-(1,2,3,5,6,7-hexahydros-indacen-4-ylcarbamoyl)-5-(1-hydroxycyclohexyl) thiazole-2-sulfonamide]
1 to 5 | CC(C)c1cc(C#N)cc(C(C)C)c1NC(=O)NS(=O)(=O)c1ccc(C2(O)CC2)s1 [Compound 194, N-(4-cyano-2,6-diisopropylphenylcarbamoyl)-5-(1-hydroxycyclopropyl) thiophene-2-sulfonamide]
1 to 5 | CC(C)c1ccc(F)c(C(C)C)c1NC(=O)NS(=O)(=O)c1ccc(C2(O)CC2)s1 [Compound 195, N-(3-fluoro-2,6-diisopropylphenylcarbamoyl)-5-(1-hydroxycyclopropyl) thiophene-2-sulfonamide]
< 1 | CC(C)c1cc(Cl)cc(C(C)C)c1NC(=O)NS(=O)(=O)c1ccc(C2(O)CC2)s1 [Compound 196, N-(4-chloro-2,6-diisopropylphenylcarbamoyl)-5-(1-hydroxycyclopropyl) thiophene-2-sulfonamide]
< 1 | O=C(Nc1c2c(cc3c1CCC3)CCC2)NS(=O)(=O)c1ncc(C2(O)CCC2)s1 [Compound 197, N-(1,2,3,5,6,7-hexahydros-indacen-4-ylcarbamoyl)-5-(1-hydroxycyclo-butyl)thiazole-2-sulfonamide]
< 1 | CC(C)c1cc(F)cc(C(C)C)c1NC(=O)NS(=O)(=O)c1ccc(C2(O)CC2)s1 [Compound 198, N-(4-fluoro-2,6-diisopropylphenylcarbamoyl)-5-(1-hydroxycyclopropyl) thiophene-2-sulfonamide]
1 to 5 | O=C(Nc1c2c(c(Cl)c3c1CCC3)CCC2)NS(=O)(=O)c1ccc(C2(O)CC2)s1 [Compound 199, N-(8-chloro-1,2,3,5,6,7-hexahydros-indacen-4-ylcarbamoyl)-5-(1-hydroxycyclopropyl) thiophene-2-sulfonamide]
< 1 | O=C(Nc1c2c(c(F)c3c1CCC3)CCC2)NS(=O)(=O)c1ccc(C2(O)CC2)s1 [Compound 200]
1 to 5 | CC(C)c1cccc(C(C)C)c1NC(=O)NS(=O)(=O)c1ccc(C2(O)CC2)s1 [Compound 201, N-(2,6-diisopropylphenylcarbamoyl)-5-(1-hydroxycyclopropyl) thiophene-2-sulfonamide]
< 1 | O=C(Nc1c2c(cc3c1CCC3)CCC2)NS(=O)(=O)c1ccc(C2(O)CC2)s1 [Compound 202, N-(1,2,3,5,6,7-hexahydros-indacen-4-ylcarbamoyl)-5-(1-hydroxycyclopropyl) thiophene-2-sulfonamide]
< 1 | CC(C)c1cc(F)cc(C(C)C)c1NC(=O)NS(=O)(=O)c1cc(C2(O)CC2)cs1 [Compound 204, N-(4-fluoro-2,6-diisopropylphenyl-carbamoyl)-4-(1-hydroxycyclo-propyl)thiophene-2-sulfonamide]
< 1 | CC(C)c1cc(F)cc(C(C)C)c1NC(=O)NS(=O)(=O)c1cc(C2(O)CC2)co1 [Compound 205, N-(4-fluoro-2,6-diisopropylphenyl-carbamoyl)-4-(1-hydroxycyclo-propyl)furan-2-sulfonamide]
